Read-outs that look alike come from different tables or passages of the source.

The target in one assay is T1, OX2 (Homo sapiens, UniProt O43614).
T1 sequence (O43614 1-444): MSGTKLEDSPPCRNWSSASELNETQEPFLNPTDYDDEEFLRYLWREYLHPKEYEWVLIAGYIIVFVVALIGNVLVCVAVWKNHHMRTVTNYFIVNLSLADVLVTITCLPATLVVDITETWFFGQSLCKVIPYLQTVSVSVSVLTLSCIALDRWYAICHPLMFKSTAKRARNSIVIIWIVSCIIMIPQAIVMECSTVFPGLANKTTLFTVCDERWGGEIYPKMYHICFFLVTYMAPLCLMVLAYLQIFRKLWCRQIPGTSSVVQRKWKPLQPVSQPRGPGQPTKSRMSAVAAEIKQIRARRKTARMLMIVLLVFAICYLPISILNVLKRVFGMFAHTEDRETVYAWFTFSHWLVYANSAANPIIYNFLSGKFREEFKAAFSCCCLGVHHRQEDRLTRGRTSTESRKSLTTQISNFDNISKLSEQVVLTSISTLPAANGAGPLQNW
The assay can be described thus: Measurement of orexin receptor-binding ability ([125I]-OX-A, cell membranes, OX2). The conditions noted are these: membranes of recombinant CHO cells expressing OX2, 0.2 nM [125I]-OX-A. Details: expressed in transfected cells; host or cells: CHO cells (membrane preparation).

The target in another assay is T2, OX1 (Homo sapiens, UniProt O43613).
T2 sequence (O43613 1-425): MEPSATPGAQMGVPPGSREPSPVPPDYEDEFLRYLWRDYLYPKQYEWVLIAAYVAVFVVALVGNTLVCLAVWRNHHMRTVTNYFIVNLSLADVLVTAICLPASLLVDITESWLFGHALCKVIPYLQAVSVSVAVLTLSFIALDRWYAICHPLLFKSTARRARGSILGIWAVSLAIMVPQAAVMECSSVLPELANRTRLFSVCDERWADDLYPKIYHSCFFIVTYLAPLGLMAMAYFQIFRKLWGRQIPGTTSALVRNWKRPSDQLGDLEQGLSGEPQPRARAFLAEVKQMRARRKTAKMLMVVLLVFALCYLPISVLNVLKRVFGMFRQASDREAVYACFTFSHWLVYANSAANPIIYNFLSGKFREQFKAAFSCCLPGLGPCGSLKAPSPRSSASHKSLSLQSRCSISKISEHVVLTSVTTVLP
The assay can be described thus: Measurement of orexin receptor-binding ability ([125I]-OX-A, cell membranes, OX1). Also noted: expressed in transfected cells; host or cells: CHO cells (membrane preparation).

Where [1] appears, read: membranes of recombinant CHO cells expressing OX1, 0.2 nM [125I]-OX-A, read-out: OX1 (IC50).

What is called IC50 is the concentration that gives 50% inhibition. In the case of `Cc1ncc(OC[C@@]2(c3ccc(F)c(F)c3)C[C@H]2C(=O)Nc2ccc(C#N)cn2)c(C)n1` [Example 167, (1R,2S)-N-(5-cyanopyridin-2-yl)-2-(3,4-difluorophenyl)-2-{[(2,4-dimethylpyrimidin-5-yl)oxy]methyl}cyclopropanecarboxamide], the IC50 is 10 nM at OX2 (OX2 (IC50) nM) and 38 nM at OX1.
`Cc1ncc(OC[C@@]2(c3ccc(F)c(F)c3)C[C@H]2C(=O)Nc2ccc(Cl)cn2)c(C)n1` [Example 168, (1R,2S)-N-(5-chloropyridin-2-yl)-2-(3,4-difluorophenyl)-2-{[(2,4-dimethylpyrimidin-5-yl)oxy]methyl}cyclopropanecarboxamide]: the IC50 on OX2 (OX2 (IC50) nM) came to 4 nM; at OX1, 15 nM.
In the same order, the values of `Cc1ncc(OC[C@@]2(c3ccc(F)c(F)c3)C[C@H]2C(=O)Nc2ccc(F)cn2)c(C)n1` [Example 169, (1R,2S)-2-(3,4-difluorophenyl)-2-{[(2,4-dimethylpyrimidin-5-yl)oxy]methyl}-N-(5-fluoropyridin-2-yl)cyclopropanecarboxamide] are 4 nM and 14 nM.
Regarding `Cc1ncc(OC[C@@]2(c3ccc(F)c(F)c3)C[C@H]2C(=O)Nc2ccc(F)cc2F)c(C)n1` [Example 171], the half-inhibitory concentration (IC50) came out at 11 nM at OX2 (read-out: OX2 (IC50)) and 43 nM on OX1 (setting [1]).
In the same order, the values of `COc1cc(NC(=O)[C@@H]2C[C@@]2(COc2cnc(C)nc2C)c2ccc(F)c(F)c2)ncc1F` [Example 173, (1R,2S)-2-(3,4-difluorophenyl)-2-{[(2,4-dimethylpyrimidin-5-yl)oxy]methyl}-N-(5-fluoro-4-methoxypyridin-2-yl)cyclopropanecarboxamide] are 3.3 nM and 3.6 nM.
`Cc1ccc(C2(COc3cnc(C)nc3C)CC2C(=O)Nc2ccc(F)cn2)cc1` (stereo not shown) [Example 174]: the IC50 at OX2 (OX2 (IC50) nM) turned out to be 55 nM; at OX1 it was 33 nM.
For the compound `Cc1ccc(C2(COc3cnc(C)nc3C)CC2C(=O)Nc2ccc(Cl)cn2)cc1` (stereo not shown) [Example 175], the IC50 on OX2 (OX2 (IC50) nM) was 35 nM; on OX1, 62 nM.
Take `Cc1cccc(C2(COc3cnc(C)nc3C)CC2C(=O)Nc2ccc(F)cn2)c1` (stereo not shown) [Example 176]: the IC50 at OX2 (OX2 (IC50) nM) was 26 nM; at OX1 it was 137 nM.
For `Cc1cccc(C2(COc3cnc(C)nc3C)CC2C(=O)Nc2cccnc2)c1` (stereo not shown) [Example 177], the results for the IC50 at OX2 (read-out: OX2 (IC50)) and at OX1 (setting [1]) were 84 nM and 334 nM, respectively.
For `Cc1ncc(OCC2(c3ccccc3C)CC2C(=O)Nc2ccc(F)cn2)c(C)n1` (stereo not shown) [Example 179], the IC50 on OX2 (OX2 (IC50) nM) was found to be 29 nM; at OX1 it was 167 nM.
As to `Cc1ncc(OCC2(c3ccccc3C)CC2C(=O)Nc2cccnc2)c(C)n1` (stereo not shown) [Example 180], the IC50 amounted to 33 nM on OX2 (read-out: OX2 (IC50)) and 231 nM at OX1 (setting [1]).
On to `COc1ccc(C2(COc3cnc(C)nc3C)CC2C(=O)Nc2ccc(F)cn2)cc1` (stereo not shown) [Example 181], for which the figures for the IC50 on OX2 (OX2 (IC50) nM) and at OX1 were 100 nM and 118 nM, respectively.
Consider `COc1ccc(C2(COc3cnc(C)nc3C)CC2C(=O)Nc2ccc(Cl)cn2)cc1` (stereo not shown) [Example 182], for which the IC50 on OX2 (read-out: OX2 (IC50)) was found to be 21 nM; at OX1 (setting [1]), 99 nM.
As for `COc1cccc(C2(COc3cnc(C)nc3C)CC2C(=O)Nc2ccc(C#N)cn2)c1` (stereo not shown) [Example 183], the IC50 on OX2 (OX2 (IC50) nM) came out at 42 nM; at OX1, 337 nM.
`COc1cccc(C2(COc3cnc(C)nc3C)CC2C(=O)Nc2cccnc2)c1` (stereo not shown) [Example 184]: the IC50 on OX2 (read-out: OX2 (IC50)) was 21 nM; on OX1 (setting [1]), 784 nM.
In the case of `COc1cccc(C2(COc3cnc(C)nc3C)CC2C(=O)Nc2ccc(Cl)cn2)c1` (stereo not shown) [Example 185], the IC50 on OX2 (OX2 (IC50) nM) was 7 nM; at OX1, 24 nM.
Turning to `COc1cccc([C@]2(COc3cnc(C)nc3C)C[C@H]2C(=O)Nc2cc(C)c(F)cn2)c1` [Example 189, (1R,2S)-2-{[(2,4-dimethylpyrimidin-5-yl)oxy]methyl}-N-(5-fluoro-4-methylpyridin-2-yl)-2-(3-methoxyphenyl)cyclopropanecarboxamide], the IC50 was 4.1 nM at OX2 (read-out: OX2 (IC50)) and 7 nM at OX1 (setting [1]).
With `COc1cccc([C@]2(COc3cnc(C)nc3C)C[C@H]2C(=O)Nc2ccc(F)c(F)c2)c1` [Example 190, (1R,2S)-N-(3,4-difluorophenyl)-2-{[(2,4-dimethylpyrimidin-5-yl)oxy]methyl}-2-(3-methoxyphenyl)cyclopropanecarboxamide], the IC50 at OX2 (read-out: OX2 (IC50)) was 5 nM; at OX1 (setting [1]), 11 nM.
The like results for `COCc1nc(C)ncc1OC[C@@]1(c2cccc(F)c2)C[C@H]1C(=O)Nc1ccc(F)cc1` [Example 192, (1R,2S)-2-(3-fluorophenyl)-N-(4-fluorophenyl)-2-{[(4-methoxymethyl-2-methylpyrimidin-5-yl)oxy]methyl}cyclopropanecarboxamide] were, in that order, 5 nM and 12 nM.
As for `COCc1nc(C)ncc1OC[C@@]1(c2cccc(F)c2)C[C@H]1C(=O)Nc1ccccn1` [Example 193, (1R,2S)-2-(3-fluorophenyl)-2-{[(4-methoxymethyl-2-methylpyrimidin-5-yl)oxy]methyl}-N-(pyridin-2-yl)cyclopropanecarboxamide], the results for the IC50 on OX2 (OX2 (IC50) nM) and at OX1 were 8 nM and 36 nM, respectively.
Take `COCc1nc(C)ncc1OC[C@@]1(c2cccc(F)c2)C[C@H]1C(=O)Nc1ccc(F)c(F)c1` [Example 194, (1R,2S)-N-(3,4-difluorophenyl)-2-(3-fluorophenyl)-2-{[(4-methoxymethyl-2-methylpyrimidin-5-yl)oxy]methyl}cyclopropanecarboxamide]: the IC50 on OX2 (read-out: OX2 (IC50)) came to 3 nM; at OX1 (setting [1]), 7 nM.
The like results for `COCc1nc(C)ncc1OC[C@@]1(c2cccc(F)c2)C[C@H]1C(=O)Nc1cccc(F)c1` [Example 195, (1R,2S)-N,2-bis(3-fluorophenyl)-2-{[(4-methoxymethyl-2-methylpyrimidin-5-yl)oxy]methyl}cyclopropanecarboxamide] were, in that order, 3 nM and 6 nM.
Take `COCc1nc(C)ncc1OC[C@@]1(c2cccc(F)c2)C[C@H]1C(=O)Nc1ccc(F)cc1F` [Example 196, (1R,2S)-N-(2,4-difluorophenyl)-2-(3-fluorophenyl)-2-{[(4-methoxymethyl-2-methylpyrimidin-5-yl)oxy]methyl}cyclopropanecarboxamide]: the IC50 on OX2 (read-out: OX2 (IC50)) worked out at 4 nM; at OX1 (setting [1]), 9 nM.
Regarding `COCc1nc(C)ncc1OC[C@@]1(c2cccc(F)c2)C[C@H]1C(=O)Nc1ccc(Cl)cn1` [Example 198, (1R,2S)-N-(5-chloropyridin-2-yl)-2-(3-fluorophenyl)-2-{[(4-methoxymethyl-2-methylpyrimidin-5-yl)oxy]methyl}cyclopropanecarboxamide], the IC50 at OX2 (OX2 (IC50) nM) is 4 nM; at OX1, 5 nM.
In the same order, the values of `COCc1nc(C)ncc1OC[C@@]1(c2cccc(F)c2)C[C@H]1C(=O)Nc1ccc(C#N)cn1` [Example 200] are 12 nM and 67 nM.
On to `COCc1nc(C)ncc1OC[C@@]1(c2cccc(F)c2)C[C@H]1C(=O)Nc1ccc(C(F)(F)F)cn1` [Example 201, (1R,2S)-2-(3-fluorophenyl)-2-{[(4-methoxymethyl-2-methylpyrimidin-5-yl)oxy]methyl}-N-[5-(trifluoromethyl)pyridin-2-yl]cyclopropanecarboxamide], for which the values for the half-maximal inhibitory concentration (IC50) at OX2 (OX2 (IC50) nM) and at OX1 were 4 nM and 5 nM, respectively.

For the origin of these results see patent US8268848B2, “Cyclopropane compound” (Eisai R&D Management Co., Ltd., priority 2010, dated 2012).
